# Experimental data from patent publication US20040023994A1 (priority 2002, published 2004).
# Read-outs that look alike come from different tables or passages of the source.
# Tests used:
# UO-31 = conditions: for CC50: read-out: LC50
# HT29 = conditions: for CC50: read-out: LC50
# ACHN [1] = test system: ACHN
# MDA-MB-231/ATCC = conditions: for CC50: read-out: LC50
# UACC-62 = conditions: for CC50: read-out: LC50
# SF-539 = conditions: for CC50: read-out: LC50
# MDA-MB-435 = conditions: for CC50: read-out: LC50
# OVCAR-3 = conditions: for CC50: read-out: LC50
# SK-MEL-2 = conditions: for CC50: read-out: LC50
# SW-620 = conditions: for CC50: read-out: LC50
# HS 578T = conditions: 48 h; for CC50: read-out: LC50
# OVCAR-4 [2] = conditions: for CC50: read-out: LC50
# CAKI-1 = conditions: for CC50: read-out: LC50
# U251 = conditions: U251, CNS, NCI database, cited from earlier work; for CC50: read-out: LC50 (the source's name)
# BT-549 = conditions: BT-549, Breast, NCI database, cited from earlier work; for CC50: read-out: LC50 (the source's name)
# IGR-OV1 = conditions: IGR-OV1, Ovarian, NCI database, cited from earlier work; for CC50: read-out: LC50 (the source's name)
# OVCAR-4 [3] = conditions: OVCAR-4, Ovarian, NCI database, cited from earlier work; for CC50: read-out: LC50 (the source's name)
# HCT-15 = conditions: HCT-15, Colon, NCI database, cited from earlier work; for CC50: read-out: LC50 (the source's name)
# SK-OV-3 = conditions: SK-OV-3, Ovarian, NCI database, cited from earlier work; for CC50: read-out: LC50 (the source's name)
# SNB-75 = conditions: SNB-75, CNS, NCI database, cited from earlier work; for CC50: read-out: LC50 (the source's name)
# SK-MEL-5 = conditions: SK-MEL-5, Melanoma, NCI database, cited from earlier work; for CC50: read-out: LC50 (the source's name)
# PC-3 = conditions: PC-3, Prostate, NCI database, cited from earlier work; for CC50: read-out: LC50 (the source's name)
# ACHN [4] = conditions: Renal, NCI database, cited from earlier work; for CC50: read-out: LC50 (the source's name)
# [5] = Homo sapiens, 48 h, read-out: LC50
structure (smiles),measurement,setting,value
"CC(=O)C=CSc1ncnc2nc[nH]c12 [cis-AVTP, 6-(2-acetylvinylthio) purine]",GI50,"UO-31; Homo sapiens, UO-31, 48 h",0.6 µM
same,CC50,"UO-31; Homo sapiens, UO-31, 48 h",4.48 µM
same,TGI,"UO-31; UO-31, Renal, 48 h",1.85 µM
same,TGI,"HT29; HT29, Colon, 48 h",2.85 µM
same,GI50,"HT29; Homo sapiens, HT-29, 48 h",0.73 µM
same,CC50,"HT29; Homo sapiens, HT-29, 48 h",9.23 µM
same,GI50,"ACHN [1]; Homo sapiens, 48 h",1.99 µM
same,CC50,ACHN [1]; [5],7.59 µM
same,TGI,"ACHN [1]; Renal, 48 h",3.89 µM
same,GI50,"MDA-MB-231/ATCC; Homo sapiens, MDA-MB-231, 48 h",1.27 µM
same,CC50,"MDA-MB-231/ATCC; Homo sapiens, MDA-MB-231, 48 h",> 100 µM
same,TGI,"MDA-MB-231/ATCC; MDA-MB-231/ATCC, Breast, 48 h",4.56 µM
same,GI50,"UACC-62; Homo sapiens, UACC-62, 48 h",0.23 µM
same,CC50,"UACC-62; Homo sapiens, UACC-62, 48 h",5.88 µM
same,TGI,"UACC-62; UACC-62, Melanoma, 48 h",1.10 µM
same,GI50,"SF-539; Homo sapiens, SF-539, 48 h",0.65 µM
same,CC50,"SF-539; Homo sapiens, SF-539, 48 h",11.8 µM
same,TGI,"SF-539; SF-539, CNS, 48 h",2.86 µM
same,GI50,"MDA-MB-435; Homo sapiens, MDA-MB-435, 48 h",0.56 µM
same,CC50,"MDA-MB-435; Homo sapiens, MDA-MB-435, 48 h",9.8 µM
same,TGI,"MDA-MB-435; MDA-MB-435, Breast, 48 h",2.75 µM
same,GI50,"OVCAR-3; Homo sapiens, OVCAR-3, 48 h",0.03 µM
same,CC50,"OVCAR-3; Homo sapiens, OVCAR-3, 48 h",8.67 µM
same,TGI,"OVCAR-3; OVCAR-3, Ovarian, 48 h",0.47 µM
same,GI50,"SK-MEL-2; Homo sapiens, SK-MEL-2, 48 h",0.48 µM
same,CC50,"SK-MEL-2; Homo sapiens, SK-MEL-2, 48 h",40.7 µM
same,TGI,"SK-MEL-2; SK-MEL-2, Melanoma, 48 h",8.22 µM
same,GI50,"SR; Homo sapiens, 48 h",0.17 µM
same,CC50,SR; [5],> 100 µM
same,TGI,"SR; Leukemia, 48 h",>100 µM
same,GI50,"SW-620; Homo sapiens, SW-620, 48 h",1.52 µM
same,CC50,"SW-620; Homo sapiens, SW-620, 48 h",> 100 µM
same,TGI,"SW-620; SW-620, Colon, 48 h",>100 µM
same,TGI,"HS 578T; HS 578T, Breast",8.79 µM
same,GI50,"HS 578T; Homo sapiens, Hs-578T",0.46 µM
same,CC50,"HS 578T; Homo sapiens, Hs-578T",> 100 µM
same,GI50,"OVCAR-4 [2]; Homo sapiens, OVCAR-4, 48 h",0.51 µM
same,CC50,"OVCAR-4 [2]; Homo sapiens, OVCAR-4, 48 h",25.6 µM
same,TGI,"OVCAR-4 [2]; OVCAR-4, Ovarian, 48 h",4.06 µM
same,TGI,"CAKI-1; CAKI-1, Renal, 48 h",0.55 µM
same,GI50,"CAKI-1; Homo sapiens, CAKI-1, 48 h",0.11 µM
same,CC50,"CAKI-1; Homo sapiens, CAKI-1, 48 h",2.85 µM
"Nc1nc2nc[nH]c2c(=S)[nH]1 [6-TG, 6-thioguanine]",GI50,U251,4.89 µM
same,TGI,U251,>100 µM
same,CC50,U251,> 100 µM
same,GI50,BT-549,3.59 µM
same,TGI,BT-549,>100 µM
same,CC50,BT-549,> 100 µM
same,GI50,IGR-OV1,4.79 µM
same,TGI,IGR-OV1,>100 µM
same,CC50,IGR-OV1,> 100 µM
same,GI50,OVCAR-4 [3],1.49 µM
same,TGI,OVCAR-4 [3],99.5 µM
same,CC50,OVCAR-4 [3],> 100 µM
same,GI50,HCT-15,1.07 µM
same,TGI,HCT-15,50.9 µM
same,CC50,HCT-15,> 100 µM
same,GI50,SK-OV-3,0.54 µM
same,TGI,SK-OV-3,16.4 µM
same,CC50,SK-OV-3,> 100 µM
same,GI50,SNB-75,1.42 µM
same,TGI,SNB-75,41.3 µM
same,CC50,SNB-75,> 100 µM
same,GI50,SK-MEL-5,3.53 µM
same,TGI,SK-MEL-5,16.4 µM
same,CC50,SK-MEL-5,88.1 µM
same,GI50,PC-3,1.77 µM
same,TGI,PC-3,>100 µM
same,CC50,PC-3,> 100 µM
same,CC50,ACHN [4],> 100 µM
same,GI50,ACHN [4],1.93 µM
same,TGI,ACHN [4],>100 µM
"Sc1ncnc2nc[nH]c12 [6-MP, 6-mercaptopurine]",GI50,U251,11.8 µM
same,TGI,U251,>100 µM
same,CC50,U251,> 100 µM
same,GI50,BT-549,> 100 µM
same,TGI,BT-549,>100 µM
same,CC50,BT-549,> 100 µM
same,GI50,IGR-OV1,8.59 µM
same,TGI,IGR-OV1,>100 µM
same,CC50,IGR-OV1,> 100 µM
same,GI50,OVCAR-4 [3],7.11 µM
same,TGI,OVCAR-4 [3],>100 µM
same,CC50,OVCAR-4 [3],> 100 µM
same,GI50,HCT-15,4.38 µM
same,TGI,HCT-15,>100 µM
same,CC50,HCT-15,> 100 µM
same,GI50,SK-OV-3,0.97 µM
same,TGI,SK-OV-3,>100 µM
same,CC50,SK-OV-3,> 100 µM
same,GI50,SNB-75,7.93 µM
same,TGI,SNB-75,>100 µM
same,CC50,SNB-75,> 100 µM
same,GI50,SK-MEL-5,8.59 µM
same,TGI,SK-MEL-5,>100 µM
same,CC50,SK-MEL-5,> 100 µM
same,GI50,PC-3,3.81 µM
same,TGI,PC-3,>100 µM
same,CC50,PC-3,> 100 µM
same,CC50,ACHN [4],> 100 µM
same,GI50,ACHN [4],6.3 µM
same,TGI,ACHN [4],>100 µM
"CC(=O)C=CSc1nc(N)nc2nc[nH]c12 [trans-AVTG, 6-(2-acetylvinylthio) guanine]",GI50,"UO-31; UO-31, Renal, 48 h",0.62 µM
same,TGI,"UO-31; UO-31, Renal, 48 h",11.9 µM
same,CC50,"UO-31; UO-31, Renal, 48 h",39.1 µM
same,GI50,"HT29; HT29, Colon, 48 h",1.06 µM
same,TGI,"HT29; HT29, Colon, 48 h",12.5 µM
same,CC50,"HT29; HT29, Colon, 48 h",60.4 µM
same,GI50,"ACHN [1]; Renal, 48 h",3.63 µM
same,TGI,"ACHN [1]; Renal, 48 h",51.4 µM
same,CC50,"ACHN [1]; read-out: LC50, Renal, 48 h",> 100 µM
same,GI50,"MDA-MB-231/ATCC; MDA-MB-231/ATCC, Breast, 48 h",0.89 µM
same,TGI,"MDA-MB-231/ATCC; MDA-MB-231/ATCC, Breast, 48 h",23.6 µM
same,CC50,"MDA-MB-231/ATCC; MDA-MB-231/ATCC, Breast, 48 h",> 100 µM
same,GI50,"UACC-62; UACC-62, Melanoma, 48 h",0.28 µM
same,TGI,"UACC-62; UACC-62, Melanoma, 48 h",0.93 µM
same,CC50,"UACC-62; UACC-62, Melanoma, 48 h",24.9 µM
same,GI50,"SF-539; SF-539, CNS, 48 h",0.81 µM
same,TGI,"SF-539; SF-539, CNS, 48 h",16.3 µM
same,CC50,"SF-539; SF-539, CNS, 48 h",> 100 µM
same,GI50,"MDA-MB-435; MDA-MB-435, Breast, 48 h",1.04 µM
same,TGI,"MDA-MB-435; MDA-MB-435, Breast, 48 h",12.9 µM
same,CC50,"MDA-MB-435; MDA-MB-435, Breast, 48 h",51.5 µM
same,GI50,"OVCAR-3; OVCAR-3, Ovarian, 48 h",0.24 µM
same,TGI,"OVCAR-3; OVCAR-3, Ovarian, 48 h",0.63 µM
same,CC50,"OVCAR-3; OVCAR-3, Ovarian, 48 h",12.1 µM
same,GI50,"SK-MEL-2; SK-MEL-2, Melanoma, 48 h",1.02 µM
same,TGI,"SK-MEL-2; SK-MEL-2, Melanoma, 48 h",15.5 µM
same,CC50,"SK-MEL-2; SK-MEL-2, Melanoma, 48 h",98.7 µM
same,GI50,"SR; Leukemia, 48 h",0.09 µM
same,TGI,"SR; Leukemia, 48 h",10.2 µM
same,CC50,"SR; read-out: LC50, Leukemia, 48 h",> 100 µM
same,GI50,"SW-620; SW-620, Colon, 48 h",1.13 µM
same,TGI,"SW-620; SW-620, Colon, 48 h",6.50 µM
same,CC50,"SW-620; SW-620, Colon, 48 h",> 100 µM
same,GI50,"HS 578T; HS 578T, Breast",1.78 µM
same,TGI,"HS 578T; HS 578T, Breast",26.9 µM
same,CC50,"HS 578T; HS 578T, Breast",> 100 µM
same,GI50,"OVCAR-4 [2]; OVCAR-4, Ovarian, 48 h",2.46 µM
same,TGI,"OVCAR-4 [2]; OVCAR-4, Ovarian, 48 h",17.0 µM
same,CC50,"OVCAR-4 [2]; OVCAR-4, Ovarian, 48 h",45.1 µM
same,GI50,"CAKI-1; CAKI-1, Renal, 48 h",0.16 µM
same,TGI,"CAKI-1; CAKI-1, Renal, 48 h",0.51 µM
same,CC50,"CAKI-1; CAKI-1, Renal, 48 h",13.7 µM
